Earlier results, collected in patent publication US20070178099A1, “Suppression of TNFalpha and IL-12 in therapy” (The Kennedy Institute of Rheumatology, priority 1996, published 2007).
Read-outs that look alike come from different tables or passages of the source.

What was measured:
Crohn's disease = settings: open-label trial

cA2: chimeric anti-TNF antibody: variable region of mouse anti-human TNF IgG1 antibody A2 and constant regions of human IgG1, kappa immunoglobulin
clinical effect in rheumatoid arthritis (rheumatoid arthritis; open-label trials): suppression of inflammation and with successful retreatment after relapse | clinical effect in rheumatoid arthritis (rheumatoid arthritis; randomized, double-blind, placebo-controlled trial): suppression of inflammation | clinical effect in Crohn's disease (Crohn's disease): Beneficial effects
